# Experimental data published in patent US7964359B2, “Compositions and methods for the enhancement of soluble amyloid beta oligomer (ADDL) uptake and clearance” (Acumen Pharmaceuticals, Inc., priority 2006, dated 2011).
# What was measured:
# [1] = tested on: cells over-expressing insulin receptor; assay: ADDL uptake and clearance by cells over-expressing insulin receptor; assay type: cell-based
# Source text: The amount of oligomeric Aβ peptide assemblies present in cell lysates and culture medium is presented.
# Total ADDL levels were higher than other treatment conditions. […] In the presence of insulin, ADDLs were internalized and detected in the center of the intracellular compartment. In the presence of AG1024, the majority of ADDLs were retained in the extracellular compartment.
# [2] = tested on: cultured cortical neurons; assay: ADDL uptake in cultured cortical neurons (western blot of medium, immunoprecipitation of lysates); assay type: cell-based
# Description: Primary cortical cultures were prepared from 1-day old pups and maintained in serum-free neurobasal A medium complemented with 2% B-27, […] L-glutamine and 5 μg/mL bFGF. Synthetic oligomeric Aβ peptide assemblies (100 nM) were applied to cultured cortical neurons and incubated at 37° C. for 30 minutes. […] After separation on SDS-PAGE, the precipitated oligomeric Aβ peptide assemblies were detected on western blots with 6E10 antibody. The bar graph (mean±SE) summarizes data from four independent replicated treatments.
# (§1) ADDL Uptake and Clearance by Neurons Occurs Via Insulin Receptor Signaling. […] Extracellular ADDL levels were measured on western blots using a concentrated medium. […] On the other hand, the intracellular ADDLs were detected by immunoprecipitation (FIG. 2B). […] This uptake, however, was prevented by […] (FIG. 2B, lane 5, 6).
# [3] = target: T1, insulin receptor (Homo sapiens, UniProt P06213); assay: Effect of insulin signaling blockers on insulin-stimulated insulin receptor phosphorylation; assay type: cell-based
# Source text: These assays are validated via the use of control compounds such as insulin signaling and receptor antagonists and insulin sensitizers.
# [4] = target: T1, insulin receptor; assay: ADDL breakdown by cells over expressing human insulin receptor; assay type: cell-based; parameters: expressed in transfected cells; conditions: inhibition of insulin receptor
# [5] = target: T2, insulin receptor (Rattus norvegicus, UniProt P15127); assay: Insulin receptor tyrosine phosphorylation in hippocampal neuronal cultures; assay type: cell-based; parameters: endogenous in cells; host or cells: rat primary hippocampal and cortical neuronal cultures; conditions: for insulin-stimulated insulin receptor tyrosine phosphorylation: ADDLs with 100 nM insulin; for insulin-stimulated insulin receptor tyrosine phosphorylation / tyrosine phosphorylation of the insulin receptor: hippocampal neurons; for tyrosine phosphorylation of the insulin receptor: substance alone
# Description: The insulin receptor was immunoprecipitated by an antibody against the β subunit of the insulin receptor. The precipitated proteins were then detected on separate western blots by an anti-phosphotyrosine antibody and an anti-insulin receptor β subunit antibody, respectively. The ratio of phosphorylated and regular receptors was calculated after densitometry scan and compared among different treatments.
# (§2) The tyrosine phosphorylation extent of insulin receptor was examined by precipitating insulin receptor with anti-insulin receptor antibody followed by blotting with anti-pTyr antibody on western blots.
# (§3) Upon termination of the reaction, the extracellular medium was removed and cell lysates were prepared with a lysis buffer. The tyrosine phosphorylation of insulin receptor was assessed by immunoprecipitation of insulin receptor with a specific anti-insulin receptor antibody, followed by blotting the precipitated receptor with an anti-tyrosine antibody.
# [6] = target: T1, insulin receptor; conditions: cited from earlier work
# [7] = tested on: Akt; assay: Akt ser473 phosphorylation in cortical neurons; assay type: cell-based; conditions: 6 hours
# Source text: (§4) Equalized total amount of protein from soluble cell lysates were separated on SDS-PAGE, and pAkt ser473 detected on western blots with a specific antibody against pAkt ser473. Identical samples transferred to a separate membrane were detected with an anti-total Akt (rAkt) antibody for internal normalization. The normalized pAkt extent from each experimental condition was converted to percent control and analyzed with one-way ANOVA, **P<0.01.
# (§5) In the presence ADDLs, however, there was an increase in pAkt ser473. […] To test whether inhibition of phosphatase 2A (PP2A) causes a similar enhancement of pAkt ser473, the cortical neurons were pre-treated with okadaic acid (OA), a potent PP2A/PP1 inhibitor at a concentration (10 nM) preferentially inhibiting PP2A.
# [8] = tested on: hippocampal neurons; assay: MTT cell viability assay after ADDL/insulin treatment; assay type: cell-based
# [9] = tested on: IRS1; assay: IRS1 serine307 phosphorylation in hippocampal neuronal cultures; assay type: cell-based; conditions: 150 nM ADDLs, 60 minutes
# Source text: Equal amount of total proteins from soluble cell lysates from each condition was separated on SDS-PAGE and transferred to nitrocellulose membranes. The phosphorylation extent of IRS1 Ser307 was detected with an anti-IRS1 PSer307 antibody. Identical samples on a separate membrane were blotted with an anti-total amount of IRS1 (rIRS1). The immunoreactivities of pIRS1(Ser307) were normalized with those of rIRS1. Values from each experimental group were converted to percent control and analyzed with one-way ANOVA, ***p<0.0001; **p<0.01.
# [10] = tested on: Akt; assay: Akt ser473 phosphorylation in hippocampal neurons; assay type: cell-based; conditions: 1 hour post-ADDL/INS treatment
# Source text: as §4, §5
# [11] = tested on: MAP kinase; assay: Insulin-induced MAP kinase phosphorylation; assay type: cell-based; conditions: ADDL treatment
# Source text: Identified herein is a signaling loop in which molecular pathology of AD and type II diabetes can be interconnected.
# [12] = target: T1, insulin receptor; assay: Ligand blotting of ADDLs to precipitated insulin receptor; assay type: binding; parameters: expressed in transfected cells; conditions: 100 nM ADDLs; receptors from cells with and without insulin treatment
# Source text: The cell lysates were subjected to co-immunoprecipitation, in which a specific anti-ADDL antibody (20C2) was used to precipitated ADDLs and proteins that complexed with ADDLs. This was followed by detection of insulin receptor from precipitated proteins on a western blot. […] To test whether the ADDL-insulin receptor interaction is direct, the human insulin receptors from insulin receptor expressing cells with and without insulin treatment were precipitated with an anti-insulin receptor antibody.
# [13] = target: T2, insulin receptor; assay: Insulin receptor (IRα) immunofluorescence in mature hippocampal neurons after ADDL treatment; assay type: cell-based; parameters: endogenous in cells; host or cells: cultures of mature hippocampal neurons; conditions: 100 nM ADDLs, 30 minutes
# Description: ADDLs were added to cultures at 100 nM and incubated for 30 minutes to allow for complete binding. […] Insulin receptors, identified using antibodies against the outward-directed alpha sub-unit, also distributed in a punctate manner.
# To investigate whether ADDLs cause IR impairment, changes in neuronal IR levels following ADDL treatment were analyzed. […] To detect neuronal surface IR, an antibody recognizing the alpha subunit of IR (IRα) localized on the extracellular membrane layer. Abundant IRα immunoreactivity was detected in cultured hippocampal neurons, which was particularly concentrated on the membrane of soma and dendrites. After treated with 100 nM ADDLs for 30 minutes, however, there was a drastic change in IRα immunostaining pattern with a substantial reduction of IRα from dendrites but an increase in the cell body. […] The increased cytosolic IRα immunoreactivity implicates internalization of the receptor. Loss of IRα occurred specifically to ADDL attacked dendrites. […] Similar to the above experiment, ADDLs were added to cultures at 100 nM and incubated for 30 minutes to allow for complete binding.
# The down-regulation of IR is likely due to internalization the receptor by ADDLs.
# [14] = target: T2, insulin receptor; assay: Insulin receptor tyrosine phosphorylation in cortical neuronal cultures; assay type: cell-based; parameters: endogenous in cells; host or cells: rat primary hippocampal and cortical neuronal cultures; conditions: cortical neurons
# Description: as §2, §3
# [15] = target: T2, insulin receptor; assay: Serine phosphorylation of insulin receptor in hippocampal neurons; assay type: cell-based; parameters: endogenous in cells; host or cells: rat primary hippocampal and cortical neuronal cultures; conditions: 150 nM ADDLs, 60 minutes
# Description: The cell lysates were subjected to immunoprecipitation using an anti-insulin receptor antibody. The precipitated insulin receptors were analyzed by western blot with an anti-phosphoserine antibody to detect the serine phosphorylation extent of insulin receptor (pSer-IR). The pSer-IR extent was normalized with the total amount of precipitated insulin receptor. Each condition was converted to percent control before analyzed one-way ANOVA, **p<0.01.
# [16] = tested on: hippocampal neurons; assay: ADDL uptake in hippocampal neurons; assay type: cell-based
# Description: as §1
# [17] = tested on: hippocampal neurons; assay: ADDL binding to hippocampal neurons after insulin pre-incubation; assay type: cell-based; conditions: for prevention of ADDL binding to hippocampal neurons: then 100 nM ADDLs
# Source text: This possibility seems unlikely, however, given the abundance of insulin receptors in cell bodies of ADDL-exposed neurons.
# [18] = cells pretreated with inhibitor before ADDL and insulin
# T2 sequence (P15127 27-759 limits assumed): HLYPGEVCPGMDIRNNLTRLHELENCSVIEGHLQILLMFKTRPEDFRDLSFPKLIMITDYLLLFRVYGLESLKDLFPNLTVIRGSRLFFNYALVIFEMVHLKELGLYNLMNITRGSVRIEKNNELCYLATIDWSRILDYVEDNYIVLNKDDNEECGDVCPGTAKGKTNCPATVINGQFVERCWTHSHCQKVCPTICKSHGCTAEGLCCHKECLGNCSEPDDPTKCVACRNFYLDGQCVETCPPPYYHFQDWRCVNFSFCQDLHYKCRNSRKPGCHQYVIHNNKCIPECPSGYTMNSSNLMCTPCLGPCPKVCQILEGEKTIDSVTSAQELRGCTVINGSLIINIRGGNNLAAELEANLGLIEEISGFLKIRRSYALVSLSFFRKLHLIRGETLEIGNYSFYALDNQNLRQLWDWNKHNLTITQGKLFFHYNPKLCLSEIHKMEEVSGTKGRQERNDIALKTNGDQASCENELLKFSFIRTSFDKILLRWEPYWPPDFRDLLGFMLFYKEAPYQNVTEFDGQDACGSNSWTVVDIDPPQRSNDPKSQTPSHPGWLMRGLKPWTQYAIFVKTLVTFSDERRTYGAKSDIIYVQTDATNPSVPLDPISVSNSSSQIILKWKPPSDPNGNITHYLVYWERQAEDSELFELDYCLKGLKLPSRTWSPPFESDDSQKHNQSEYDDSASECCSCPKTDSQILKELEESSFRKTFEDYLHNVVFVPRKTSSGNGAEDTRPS
# T2 sequence (P15127 764-1383 limits assumed): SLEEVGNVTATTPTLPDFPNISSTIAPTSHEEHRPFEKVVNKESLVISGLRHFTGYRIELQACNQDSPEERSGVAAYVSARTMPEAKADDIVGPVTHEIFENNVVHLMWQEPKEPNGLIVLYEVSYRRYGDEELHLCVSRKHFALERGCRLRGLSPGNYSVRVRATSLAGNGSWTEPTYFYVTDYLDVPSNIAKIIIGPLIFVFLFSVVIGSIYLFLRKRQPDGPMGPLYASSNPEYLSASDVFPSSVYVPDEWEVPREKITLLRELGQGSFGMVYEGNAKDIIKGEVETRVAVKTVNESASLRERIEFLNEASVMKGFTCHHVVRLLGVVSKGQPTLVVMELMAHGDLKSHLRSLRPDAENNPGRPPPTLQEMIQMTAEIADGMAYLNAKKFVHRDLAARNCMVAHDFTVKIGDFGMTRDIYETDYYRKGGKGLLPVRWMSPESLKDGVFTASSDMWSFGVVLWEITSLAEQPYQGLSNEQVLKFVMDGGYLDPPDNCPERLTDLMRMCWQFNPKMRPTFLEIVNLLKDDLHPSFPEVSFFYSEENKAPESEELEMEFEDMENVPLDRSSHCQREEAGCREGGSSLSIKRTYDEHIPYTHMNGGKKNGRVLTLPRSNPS
molecule,measurement,setting,value
"CC(C)(C)c1cc(C=C(C#N)C#N)cc(Br)c1O [AG1024, tyrphostin AG1024]",ADDL aggregates in the extracellular medium,[1]; [18],markedly higher amount of ADDL aggregates in the extracellular medium
same,insulin-stimulated ADDL internalization,[1]; [18],prevented
same,ADDLs in the extracellular medium,"[2]; 100 nM synthetic ADDLs, 37° C., 30 minutes",striking aggregation of ADDLS
same,insulin-induced ADDL uptake into cell lysate,[2]; inhibitor included prior to ADDL treatment,prevented
same,insulin-stimulated insulin receptor phosphorylation,[3],significantly inhibited
same,ADDLs in the extracellular medium,[4],striking accumulation of ADDLs in the extracellular medium
"CC(=O)OCOC(=O)CN(CC(=O)OCOC(C)=O)c1ccccc1OCCOc1ccccc1N(CC(=O)OCOC(C)=O)CC(=O)OCOC(C)=O [BAPTA-AM, 1,2-bis(o-aminophenoxy)ethane-N,N,N′,N′-tetraacetic acid tetra(acetoxymethyl)ester]",ADDL inhibition of insulin-stimulated IR tyrosine phosphorylation under chelation of intracellular Ca2+,"[5]; 100-150 nM ADDLs, neuronal depolarization and glutamate stimulation",could be rescued
CN(C)C(=N)N=C(N)N [Metformin],tyrosine kinase activity of the insulin receptor,[6],enhance the tyrosine kinase activity of the insulin receptor
O.O=C([O-])c1ccccc1-c1c2cc(I)c(=O)c(I)c-2oc2c(I)c([O-])c(I)cc12.[Na+].[Na+] [erythrosin B],insulin-stimulated insulin receptor phosphorylation,[3],significantly inhibited
C=C1[C@@H](O)[C@@H]2O[C@]3(CC[C@H](/C=C/[C@@H](C)[C@@H]4CC(C)=C[C@@]5(O[C@H](C[C@@](C)(O)C(=O)O)CC[C@H]5O)O4)O3)CC[C@H]2O[C@@H]1[C@@H](O)C[C@H](C)[C@H]1O[C@@]2(CCCCO2)CC[C@H]1C [okadaic acid],duration of insulin-induced increase in pAkt ser473,[7],prolonged the insulin-increased pAkt ser473
"ADDLs: neurotoxic soluble oligomeric assemblies of Aβ 1-42, prepared from synthetic Aβ 1-42 peptide",neuronal toxicity (MTT cell viability),"[8]; ADDLs alone, varying treatment duration",cause neuronal toxicity in a treatment duration-dependent
same,IRS-1 serine 307 phosphorylation,[9],increase in serine phosphorylation of IRS-1
same,insulin-induced pAkt Ser473,[10],enhancement of the insulin-induced pAkt Ser473
same,duration of insulin-induced increase in pAkt ser473,[7],significantly prolonged
same,insulin-induced MAP kinase phosphorylation,[11],significantly inhibited
same,binding of ADDL to insulin receptor (ligand blot),[12],strong binding of ADDL to insulin receptor was detected only in the activated but not the control insulin receptor
same,insulin receptor immunoreactivity in cell bodies vs ADDL-free cells,[13],~3 fold
same,dendritic IRα fluorescent intensity,[13]; P<0.01,significant loss of IRα immunoreactivity
same,reduction of dendritic insulin receptor immunoreactivity vs ADDL-free cells,[13]; image analysis,~70%
same,amount of the insulin receptor,"[5]; ADDL treatment, hippocampal neuronal cultures",reduction in the amount of the insulin receptor
same,insulin-stimulated insulin receptor tyrosine phosphorylation,[5],significantly inhibited
same,insulin-stimulated insulin receptor tyrosine phosphorylation,[5]; listed as ADDL,abolished
same,insulin-stimulated insulin receptor tyrosine phosphorylation,[5]; listed as soluble oligomeric Aβ peptide assemblies,significant inhibition
same,tyrosine phosphorylation of the insulin receptor,[5],increase in tyrosine phosphorylation of the insulin receptor
same,insulin-induced insulin receptor tyrosine phosphorylation,[14]; ADDLs 50-150 nM with 100 nM insulin,significantly inhibited
same,serine phosphorylation of insulin receptor (pSer-IR),[15],increase in serine phosphorylation of insulin receptor
insulin,total amount of ADDLs,"[1]; 100 nM ADDL with insulin, P<0.01",significantly reduced
same,"ADDL uptake (ADDL levels in cell lysates up, extracellular medium down)","[1]; 100 nM ADDL, 100 nM insulin",stimulated ADDL uptake
same,ADDL oligomers in the cell lysate fractions,"[2]; 100 nM ADDLs, immunoprecipitation with 6E10",increase of ADDL oligomers
same,ADDL uptake into hippocampal neurons,[16],stimulated a striking ADDL uptake into hippocampal neurons in a clear dose-response manner
same,aggregated ADDLs in the extracellular medium,[16]; hippocampal neurons,reduced aggregated ADDLs in the extracellular medium in a dose-response manner
same,cell viability (MTT),[8]; ADDLs/insulin for 4 hours,no apparent toxic effects
same,ADDL binding and its effects,"[17]; insulin 1 micromolar, 30 minutes before ADDLs",blocked
same,prevention of ADDL binding to hippocampal neurons,[17]; pre-incubation with 100 nM insulin,~40%
same,prevention of ADDL binding to hippocampal neurons,[17]; pre-incubation with 1 μM insulin,~70%
same,tyrosine phosphorylation of the insulin receptor,[5],marked increases in insulin receptor tyrosine phosphorylation
same,tyrosine phosphorylation of the insulin receptor,[5]; listed as Insulin,stimulated an increase in tyrosine phosphorylation
same,insulin receptor tyrosine phosphorylation,[14]; 100 nM insulin,marked increases in insulin receptor tyrosine phosphorylation
